Reference: patent US12534452B2, “N-(1H-imidazol-2-yl)benzamide compound and pharmaceutical composition comprising the same as active ingredient” (KAINOS MEDICINE, INC., priority 2019, dated 2026)

Each compound was assayed against IRAK4 (Homo sapiens (Human), UniProt Q9NWZ3) (assay: In vitro IRAK4 phosphorylation activity assay). Details: [γ-33P]-ATP, myelin basic protein substrate, 40 minutes at room temperature; categories.
Type: biochemical
In short: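 Radiometric filter-binding assay, no compound–kinase preincubation; 8 mM MOPS pH 7.0, 0.2 mM EDTA, 10 mM Mg acetate, 0.33 mg/mL myelin basic protein substrate, [γ-33P]-ATP. Reaction 40 min at room temperature, stopped with phosphoric acid, scintillation counting; IC50 reported in categories.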

Sequence of IRAK4 (Q9NWZ3 whole entry): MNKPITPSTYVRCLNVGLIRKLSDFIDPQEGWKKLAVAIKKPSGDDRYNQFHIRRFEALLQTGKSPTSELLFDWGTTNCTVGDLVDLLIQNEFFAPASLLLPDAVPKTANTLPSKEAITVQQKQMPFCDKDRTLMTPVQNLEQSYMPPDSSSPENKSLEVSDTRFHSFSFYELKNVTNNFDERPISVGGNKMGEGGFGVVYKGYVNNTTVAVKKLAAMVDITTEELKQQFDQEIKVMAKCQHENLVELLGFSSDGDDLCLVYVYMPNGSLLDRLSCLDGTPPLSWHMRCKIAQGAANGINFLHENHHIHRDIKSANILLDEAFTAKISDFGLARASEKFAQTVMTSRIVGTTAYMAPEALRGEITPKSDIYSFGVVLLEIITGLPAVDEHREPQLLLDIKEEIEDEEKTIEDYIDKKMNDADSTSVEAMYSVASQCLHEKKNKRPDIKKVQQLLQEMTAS

Row | IC50 | Compound
1 | 50 to 100 nM | O=C(Nc1nc(CCCCCCN2CCCCC2)cn1-c1ccccc1)c1cccc(-c2ccncc2)c1 [Example 268, N-(1-phenyl-4-(6-(piperidin-1-yl)hexyl)-1H-imidazol-2-yl)-3-(pyridin-4-yl)benzamide]
2 | < 50 nM | Cn1cc(-c2cccc(C(=O)Nc3nc(CCCCC(=O)NCCN4CCOCC4)cn3-c3ccccc3)c2)cn1 [Example 198, 3-(1-methyl-1H-pyrazol-4-yl)-N-(4-(5-((2-morpholinoethyl)amino)-5-oxopentyl)-1-phenyl-1H-imidazol-2-yl)benzamide]
3 | < 50 nM | Cn1cc(-c2cccc(C(=O)Nc3nc(CCCCCCN4CCCCC4)cn3-c3ccccc3)c2)cn1 [Example 220, 3-(1-methyl-1H-pyrazol-4-yl)-N-(1-phenyl-4-(6-(piperidin-1-yl)hexyl)-1H-imidazol-2-yl)benzamide]
4 | > 100 nM | O=C(CCc1cn(-c2ccccc2)c(NC(=O)c2cccc(-c3cnoc3)c2)n1)Nc1ccccc1 [Example 5, 3-(isoxazol-4-yl)-N-(4-(3-oxo-3-(phenylamino)propyl)-1-phenyl-1H-imidazol-2-yl)benzamide]
5 | < 50 nM | CNC(=O)CCCc1cn(C2CCCCC2)c(NC(=O)c2cccc(-c3cn[nH]c3)c2)n1 [Example 296, N-(1-cyclohexyl-4-(4-(methylamino)-4-oxobutyl)-1H-imidazol-2-yl)-3-(1H-pyrazol-4-yl)benzamide]
6 | 50 to 100 nM | Cn1ncc(-c2cccc(C(=O)Nc3nc(CCCC(=O)NC4CC4)cn3-c3ccccc3)c2)c1F [Example 232, N-(4-(4-(cyclopropylamino)-4-oxobutyl)-1-phenyl-1H-imidazol-2-yl)-3-(5-fluoro-1-methyl-1H-pyrazol-4-yl)benzamide]
7 | > 100 nM | CNC(=O)Cc1cn(-c2ccccc2)c(NC(=O)c2cccc(-c3ccncc3)c2)n1 [Example 265, N-(4-(2-(methylamino)-2-oxoethyl)-1-phenyl-1H-imidazol-2-yl)-3-(pyridin-4-yl)benzamide]
8 | < 50 nM | O=C(Nc1nc(CCCN2CCCCC2)cn1-c1ccccc1)c1cccc(-c2cn[nH]c2)c1 [Example 106, N-(1-phenyl-4-(3-(piperidin-1-yl)propyl)-1H-imidazol-2-yl)-3-(1H-pyrazol-4-yl)benzamide]
9 | < 50 nM | COC[C@@H]1CCCN1C(=O)CCCc1cn(-c2ccccc2)c(NC(=O)c2cccc(-c3cn[nH]c3)c2)n1 [Example 55, (S)—N-(4-(4-(2-(methoxymethyl)pyrrolidin-1-yl)-4-oxobutyl)-1-phenyl-1H-imidazol-2-yl)-3-(1H-pyrazol-4-yl)benzamide]
10 | > 100 nM | COC[C@@H]1CCCN1NC(=O)Cc1cn(-c2ccccc2)c(NC(=O)c2cccc(-c3cn[nH]c3)c2)n1 [Example 44, (S)—N-(4-(2-((2-(methoxymethyl)pyrrolidin-1-yl)amino)-2-oxoethyl)-1-phenyl-1H-imidazol-2-yl)-3-(1H-pyrazol-4-yl)benzamide]
11 | < 50 nM | C[C@@H]1CCCCN1C(=O)CCCc1cn(-c2ccccc2)c(NC(=O)c2cccc(-c3cn[nH]c3)c2)n1 [Example 61, (R)—N-(4-(4-(2-methylpiperidin-1-yl)-4-oxobutyl)-1-phenyl-1H-imidazol-2-yl)-3-(1H-pyrazol-4-yl)benzamide]
12 | < 50 nM | COC(=O)CCCCCc1cn(-c2ccccc2)c(NC(=O)c2cccc(-c3cn[nH]c3)c2)n1 [Example 91, methyl 6-(2-(3-(1H-pyrazol-4-yl)benzamido)-1-phenyl-1H-imidazol-4-yl)hexanoate]
13 | < 50 nM | COC1CCN(C(=O)CCCc2cn(-c3ccccc3)c(NC(=O)c3cccc(-c4cnn(C)c4)c3)n2)CC1 [Example 177, N-(4-(4-(4-methoxypiperidin-1-yl)-4-oxobutyl)-1-phenyl-1H-imidazol-2-yl)-3-(1-methyl-1H-pyrazol-4-yl)benzamide]
